Experimental data taken from US6620839B2, “1,3-disubstituted and 1,3,3-trisubstituted pyrrolidines as histamine-3 receptor ligands and their therapeutic applications” (Abbott Laboratories, priority 2000, dated 2003).

Molecular target: T1, histamine-3 receptor (Rattus norvegicus, UniProt Q9QYN8)
T1 construct: from tissue; host or cells: male Sprague-Dawley rat brain cortex membranes
Experiment: Histamine-3 receptor binding, (3H)-N-α-methylhistamine displacement in rat cortical membranes
Conditions: male Sprague-Dawley rat brain cortical membranes; (3H)-N-α-methylhistamine ~0.6 nM; 30 minutes at 25° C.; Cheng-Prusoff
Outline: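 Male Sprague-Dawley rat cortical membranes incubated 30 min at 25 °C with compound dilutions and [3H]-N-α-methylhistamine. Nonspecific binding defined with 3 μM thioperamide. Filtration and scintillation counting used; Ki from Hill transformation and Cheng-Prusoff equation.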

T1 sequence (Q9QYN8 whole entry): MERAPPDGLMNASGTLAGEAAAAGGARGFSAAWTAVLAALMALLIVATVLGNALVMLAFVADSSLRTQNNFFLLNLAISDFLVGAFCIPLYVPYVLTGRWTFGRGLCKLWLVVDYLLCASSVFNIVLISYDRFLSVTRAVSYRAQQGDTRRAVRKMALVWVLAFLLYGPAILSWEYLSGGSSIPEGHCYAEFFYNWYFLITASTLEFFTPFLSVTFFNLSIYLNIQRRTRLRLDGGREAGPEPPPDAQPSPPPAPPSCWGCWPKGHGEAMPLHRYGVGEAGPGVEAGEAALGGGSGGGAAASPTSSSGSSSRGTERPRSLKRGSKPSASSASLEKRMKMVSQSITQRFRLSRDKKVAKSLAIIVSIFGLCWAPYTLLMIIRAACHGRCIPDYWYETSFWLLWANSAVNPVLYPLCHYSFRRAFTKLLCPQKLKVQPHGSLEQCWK

Compared with `Cc1ccc(S(=O)(=O)N[C@@H]2CCN(CCCOc3ccc(C(=O)C4CC4)cc3)C2)cc1` [Example 61, N-((3R)-1-{3-[4-(cyclopropylcarbonyl)phenoxy]propyl}pyrrolidinyl)-4-methylbenzenesulfonamide], `CC(=O)c1ccc(OCCCN2CC[C@@H](NC(=O)c3csc(-c4cccnc4)n3)C2)cc1` [Example 4, N-{(3R)-1-[3-(4-acetylphenoxy)propyl]pyrrolidinyl}-2-(3-pyridinyl)-1,3-thiazole-4-carboxamide] is 13-fold higher in Ki: 4.2 nM for the first, 55 nM for the second.

Going from `C=CCOC(=O)N[C@@H]1CCN(CCCOc2ccc(-c3ccc(C#N)cc3)cc2)C1` [Example 132, allyl (3R)-1-{3-[(4′-cyano[1,1′-biphenyl]-4-yl)oxy]propyl}pyrrolidinylcarbamate] to `O=C(c1ccc(OCCCN2CC[C@@H](NS(=O)(=O)c3cccc4ccncc34)C2)cc1)C1CC1` [Example 95, N-((3R)-1-{3-[4-(cyclopropylcarbonyl)phenoxy]propyl}pyrrolidinyl)-8-isoquinolinesulfonamide], the Ki falls from 74 nM to 4.6 nM (16-fold). The second binds more tightly here.

Going from `CS(=O)(=O)c1ccc(S(=O)(=O)N[C@@H]2CCN(CCCOc3ccc(-c4ccc(C#N)cc4)cc3)C2)cc1` [Example 146] to `Cc1cc(-c2ccc(OCCCN3CC[C@@H](N(C)C)C3)cc2)ccc1C#N` [Example 164, 4′-{3-[(3R)-3-(dimethylamino)-1-pyrrolidinyl]propoxy}-3-methyl-1,1′-biphenyl-4-carbonitrile], the Ki rises from 3 nM to 48 nM (16-fold).

`N#Cc1ccc(-c2ccc(OCCCN3CC[C@@H](NS(=O)(=O)c4ccc(C(F)(F)F)cc4)C3)cc2)cc1` [Example 48] and `Cc1cc(OCCCN2CC[C@@H](N(C)C)C2)ccc1-c1ccc(C#N)cc1` [Example 170, 4′-{3-[(3R)-3-(dimethylamino)-1-pyrrolidinyl]propoxy}-2′-methyl-1,1′-biphenyl-4-carbonitrile] are within 1.5-fold of each other in Ki: 60 nM for the first, 51 nM for the second.

First: Cc1ccc(S(=O)(=O)N[C@@H]2CCN(CCCOc3ccc(C(=O)C4CC4)cc3)C2)cc1Cl [Example 87, 3-chloro-N-((3R)-1-{3-[4-(cyclopropylcarbonyl)phenoxy]propyl}pyrrolidinyl)-4-methylbenzenesulfonamide]
Second: 1-(4-{3-[(3R)-3-aminopyrrolidinyl]propoxy}phenyl)-1-propanone [Example 7]
The Ki of the first is 6.3-fold lower: 4.9 nM for the first, 31 nM for the second.

First: CC(=O)Nc1ccc(S(=O)(=O)N[C@@H]2CCN(CCCOc3ccc(C(=O)C4CC4)cc3)C2)cc1Cl [Example 96, N-(2-chloro-4-{[((3R)-1-{3-[4-(cyclopropylcarbonyl)phenoxy]propyl}pyrrolidinyl)amino]sulfonyl}phenyl)acetamide]
Second: N#Cc1ccc(-c2ccc(OCCCN3CC[C@@H](NS(=O)(=O)c4ccccc4C#N)C3)cc2)cc1 [Example 46, 2-cyano-N-((3R)-1-{3-[(4′-cyano[1,1′-biphenyl]-4-yl)oxy]propyl}pyrrolidinyl)benzenesulfonamide]
The Ki of the first is 86-fold lower: 1.2 nM for the first, 103 nM for the second. The first binds more tightly here.

`N#Cc1ccc(-c2ccc(OCCCN3CC[C@@H](NS(=O)(=O)c4ccc(C#N)cc4)C3)cc2)cc1` [Example 33, 4-cyano-N-((3R)-1-{3-[(4′-cyano[1,1′-biphenyl]-4-yl)oxy]propyl}pyrrolidinyl)benzenesulfonamide] and `CCc1ccc(S(=O)(=O)N[C@@H]2CCN(CCCOc3ccc(-c4ccc(C#N)cc4)cc3)C2)cc1` [Example 27] are within 1.5-fold of each other in Ki: 16 nM for the first, 18 nM for the second.

Compared with `N#Cc1ccc(-c2ccc(OCCCN3CC[C@@H](N(C(=O)N4CCCC4)C(=O)N4CCCC4)C3)cc2)cc1` [Example 149], `CC(=O)c1ccc(OCCCN2CC[C@@H](NS(=O)(=O)c3ccc(Oc4ncc(C(F)(F)F)cc4Cl)cc3)C2)cc1` [Example 79, N-{(3R)-1-[3-(4-acetylphenoxy)propyl]pyrrolidinyl}-4-{[3-chloro-5-(trifluoromethyl)-2-pyridinyl]oxy}benzenesulfonamide] is 42-fold lower in Ki: 329 nM for the first, 7.9 nM for the second. The second binds more tightly here.

Compared with `CN(C)C(=O)N(C(=O)N(C)C)[C@@H]1CCN(CCCOc2ccc(-c3ccc(C#N)cc3)cc2)C1` [Example 148], `N#Cc1ccc(-c2ccc(OCCCN3CC[C@@H](NS(=O)(=O)c4ccccc4Cl)C3)cc2)cc1` [Example 30, 2-chloro-N-((3R)-1-{3-[(4′-cyano[1,1′-biphenyl]-4-yl)oxy]propyl}pyrrolidinyl)benzenesulfonamide] is 29-fold lower in Ki: 291 nM for the first, 10 nM for the second.

Going from `CN(C)[C@@H]1CCN(CCCOc2ccc(-c3ccc(C#N)cc3)cc2F)C1` [Example 167, 4′-{3-[(3R)-3-(dimethylamino)-1-pyrrolidinyl]propoxy}-3′-fluoro-1,1′-biphenyl-4-carbonitrile] to `Cc1ccccc1S(=O)(=O)N[C@@H]1CCN(CCCOc2ccc(-c3ccc(C#N)cc3)cc2)C1` [Example 25], the Ki rises from 9 nM to 30 nM (3.3-fold).

Compared with `COc1ccc(OC)c(S(=O)(=O)N[C@@H]2CCN(CCCOc3ccc(-c4ccc(C#N)cc4)cc3)C2)c1` [Example 24], `N#Cc1ccc(-c2ccc(OCCCN3CC[C@@H](NS(=O)(=O)c4cc(Cl)cc(Cl)c4)C3)cc2)cc1` [Example 32, 3,5-dichloro-N-((3R)-1-{3-[(4′-cyano[1,1′-biphenyl]-4-yl)oxy]propyl}pyrrolidinyl)benzenesulfonamide] is 2.3-fold higher in Ki: 43 nM for the first, 99 nM for the second.

`N#Cc1ccc(-c2ccc(OCCCN3CC[C@@H](NS(=O)(=O)c4ccccc4)C3)cc2)cc1` [Example 15] and `CC(C)(C)c1ccc(S(=O)(=O)N[C@@H]2CCN(CCCOc3ccc(C(=O)C4CC4)cc3)C2)cc1` [Example 60, 4-tert-butyl-N-((3R)-1-{3-[4-(cyclopropylcarbonyl)phenoxy]propyl}pyrrolidinyl)benzenesulfonamide] are within 1.5-fold of each other in Ki: 7.3 nM for the first, 5.2 nM for the second.

Compared with `CC(C)c1ccc(S(=O)(=O)N(C)[C@@H]2CCN(CCCOc3ccc(-c4ccc(C#N)cc4)cc3)C2)cc1` [Example 127, N-((3R)-1-{3-[(4′-cyano[1,1′-biphenyl]-4-yl)oxy]propyl}pyrrolidinyl)-4-isoproply-N-methylbenzensulfonamide], `N#Cc1ccc(-c2ccc(OCCCN3CC[C@@H](NS(=O)(=O)c4cc(C(F)(F)F)cc(C(F)(F)F)c4)C3)cc2)cc1` [Example 38] is 8.2-fold higher in Ki: 16 nM for the first, 132 nM for the second.

Compared with `N#Cc1ccc(-c2ccc(OCCCN3CC[C@@H](NS(=O)(=O)c4ccc5ccncc5c4)C3)cc2)cc1` [Example 52], `CC(C)(C)NC(=O)N[C@@H]1CCN(CCCOc2ccc(-c3ccc(C#N)cc3)cc2)C1` [Example 137, N-(tert-butyl)-N′-((3R)-1-{3-[(4′-cyano[1,1′-biphenyl]-4-yl)oxy]propyl}pyrrolidinyl)urea] is 13-fold higher in Ki: 15 nM for the first, 196 nM for the second. The first binds more tightly here.

`CC(=O)Nc1ccc(S(=O)(=O)N[C@@H]2CCN(CCCOc3ccc(-c4ccc(C#N)cc4)cc3)C2)cc1Cl` [Example 53, N-(2-chloro-4-{[((3R)-1-{3-[(4′-cyano[1,1′-biphenyl]-4-yl)oxy]propyl}pyrrolidinyl)amino]sulfonyl}phenyl)acetamide] and `N#Cc1cccc(S(=O)(=O)N[C@@H]2CCN(CCCOc3ccc(C(=O)C4CC4)cc3)C2)c1` [Example 71, 3-cyano-N-((3R)-1-{3-[4-(cyclopropylcarbonyl)phenoxy]propyl}pyrrolidinyl)benzenesulfonamide] are within 1.5-fold of each other in Ki: 3.9 nM for the first, 2.8 nM for the second.

In the case of `Cc1cc(-c2ccc(C#N)cc2)ccc1OCCCN1CC[C@@H](N(C)C)C1` [Example 168, 4′-{3-[(3R)-3-(dimethylamino)-1-pyrrolidinyl]propoxy}-3′-methyl-1,1′-biphenyl-4-carbonitrile], the Ki is reported as 74 nM.
